This test concerns the target T1, L-glutaminase present in mice brain homogenate (Glutaminase(Brain)) (Mus musculus, UniProt D3Z7P3).
T1 sequence (D3Z7P3 55-674): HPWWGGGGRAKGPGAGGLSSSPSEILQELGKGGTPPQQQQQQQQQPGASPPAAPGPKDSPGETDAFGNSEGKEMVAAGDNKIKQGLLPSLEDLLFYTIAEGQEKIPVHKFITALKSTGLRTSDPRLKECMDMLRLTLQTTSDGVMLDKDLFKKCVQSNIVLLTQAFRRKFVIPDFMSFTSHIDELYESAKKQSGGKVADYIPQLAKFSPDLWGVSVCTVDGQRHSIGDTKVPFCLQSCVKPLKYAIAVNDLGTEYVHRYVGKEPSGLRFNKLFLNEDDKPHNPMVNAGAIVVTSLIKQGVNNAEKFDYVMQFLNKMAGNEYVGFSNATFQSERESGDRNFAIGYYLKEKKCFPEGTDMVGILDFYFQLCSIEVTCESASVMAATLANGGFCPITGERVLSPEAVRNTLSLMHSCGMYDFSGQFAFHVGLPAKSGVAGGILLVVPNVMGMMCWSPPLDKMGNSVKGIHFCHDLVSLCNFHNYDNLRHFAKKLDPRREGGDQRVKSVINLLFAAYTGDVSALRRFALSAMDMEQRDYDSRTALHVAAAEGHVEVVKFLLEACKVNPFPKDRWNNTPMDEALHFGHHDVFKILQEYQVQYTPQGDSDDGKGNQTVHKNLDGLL
Briefly: Glutaminase enzyme activity using glutaminase enzyme from mice brain/kidney homogenate (Nessler's reagent, ammonia). The class given is biochemical. The following applies: for inhibition at 0.1 µM: read-out: Glutaminase(Brain) activity % inhibition 0.1 μM; for inhibition at 1 µM: read-out: Glutaminase(Brain) activity % inhibition @1 μM. As to the method:
Assay 3: Determination of Glutaminase Enzyme Activity Using Glutaminase
Enzyme from Mice Brain/Kidney
Step 1: Preparation of Tissue Homogenates: Male Balb/c mice were administered 0.28 M ammonium chloride in drinking water for 7 days. The animals were sacrificed and brain/kidney organs collected on dry ice. […] The tissue was homogenized and supernatants were stored at −80° C. until the enzyme assay was performed.
Aim: Compounds were assessed for their ability to inhibit the enzymatic activity of L-glutaminase present in mice brain/kidney homogenate.
Protocol: The assay was performed using a colorimetric method using Nessler's Reagent by quantifying the amount of ammonia formed as a by product during the enzymatic conversion of L-glutamine to glutamate. In the routine assay, 16 μl of tissue homogenate is added to 33 μl of Tris-Hcl phosphate buffer (pH 8) along with 1 μl of DMSO/test compound containing the desired final concentration and vortexed briefly. 50 μl of 20 mM L-glutamine Tris buffer is added to start the reaction and incubated for 15 minutes at 37° C. The ammonia formed is detected by adding 20 μl of reaction mixture to cold water in a 96 well plate followed by 20 μl of Nessler's reagent. The colour developed is measured at 450 nm. Data Analysis: Activity of the test compound is reported as % inhibition and the data is analyzed using Graphpad Prism (Graphpad software; San Diego Calif.) for IC50 determination.

Our source for the inhibition values is patent US20160297761A1, “NOVEL INHIBITORS OF GLUTAMINASE” (RHIZEN PHARMACEUTICALS SA, priority 2014, published 2016).

Structures can show the parent of a compound that is named as a salt. Where two headings read alike, the source gives them in different places. A value given as a limit tells only on which side of the number the result lay.

For orientation: inhibition means the share of the control response that was lost under treatment. Turning to `COc1ccccc1CC(=O)Nc1nnc(CCC#Cc2ccc(NC(=O)Cc3ccccc3Cl)nc2)s1` [Example 1, 2-(2-Chlorophenyl)-N-{5-[4-(5-(2-(2-methoxyphenyl)acetamido)-1,3,4-thiadiazol-2-yl)but-1-ynyl]pyridin-2-yl}acetamide], under “0.1 μM, mice brain homogenate”, the inhibition at 0.1 µM lay within 25 to 50%. Moreover, under “1 μM, mice brain homogenate”, the inhibition at 1 µM fell in the range of 75 to 100%.

On to `COc1ccccc1CC(=O)Nc1nnc(CCCCc2ccc(NC(=O)Cc3ccccc3Cl)nc2)s1` [Example 2, 2-(2-Chlorophenyl)-N-{5-[4-(5-(2-(2-methoxyphenyl)acetamido)-1,3,4-thiadiazol-2-yl)butyl]pyridin-2-yl}acetamide], for which, where the note is “0.1 μM, mice brain homogenate”, the inhibition at 0.1 µM was in the range of 50 to 75%. Also, under “1 μM, mice brain homogenate”, the inhibition at 1 µM lay within 75 to 100%.

With `O=C(Cc1cccc(OC(F)(F)F)c1)Nc1ccc(CCCCc2nnc(NC(=O)Cc3ccccn3)s2)nc1` [Example-4, 2-(Pyridin-2-yl)-N-(5-(4-(5-(2-(3-(trifluoromethoxy)phenyl)acetamido)pyridin-2-yl)butyl)-1,3,4-thiadiazol-2-yl)acetamide], under “0.1 μM, mice brain homogenate”, the inhibition at 0.1 µM is less than 25%.

On to `O=C(Cc1cccc(OC(F)(F)F)c1)Nc1ccc(CCCCc2nnc(NC(=O)Cc3cccnc3)s2)nc1` [Example-5, 2-(Pyridin-3-yl)-N-(5-(4-(5-(2-(3-(trifluoromethoxy)phenyl)acetamido)pyridin-2-yl)butyl)-1,3,4-thiadiazol-2-yl)acetamide], for which the inhibition at 0.1 µM (0.1 μM, mice brain homogenate) was less than 25%. Further, where the note is “1 μM, mice brain homogenate”, the inhibition at 1 µM is less than 25%.

`O=C(Cc1cccc(OC(F)(F)F)c1)Nc1cnc(CCCCc2nnc(NC(=O)Cc3ccccn3)s2)cn1` [Example-6, 2-(Pyridin-2-yl)-N-(5-(4-(5-(2-(3-(trifluoromethoxy)phenyl)acetamido)pyrazin-2-yl)butyl)-1,3,4-thiadiazol-2-yl)acetamide]: the inhibition at 0.1 µM is less than 25% and the inhibition at 1 µM lay within 25 to 50%.

For the compound `O=C(Cc1cccc(OC(F)(F)F)c1)Nc1ncc(CCCCc2nnc(NC(=O)Cc3ccccn3)s2)cn1` [Example-7, 2-(Pyridin-2-yl)-N-(5-(4-(2-(2-(3-(trifluoromethoxy)phenyl)acetamido)pyrimidin-5-yl)butyl)-1,3,4-thiadiazol-2-yl)acetamide], where the note is “0.1 μM, mice brain homogenate”, the inhibition at 0.1 µM was less than 25%. The inhibition at 1 µM (1 μM, mice brain homogenate) is 25 to 50%.

For `O=C(Cc1cccnc1)Nc1ccc(CCCCc2nnc(NC(=O)Cc3ccccc3Cl)s2)cn1` [Example-12, 2-(2-Chlorophenyl)-N-(5-(4-(6-(2-(pyridin-3-yl)acetamido)pyridin-3-yl)butyl)-1,3,4-thiadiazol-2-yl) acetamide], the inhibition at 0.1 µM (0.1 μM, mice brain homogenate) lay in the range of 75 to 100%. For the same compound, for the setting “1 μM, mice brain homogenate”, the inhibition at 1 µM is 75 to 100%.

As to `CS(=O)(=O)c1cccc(CC(=O)Nc2nnc(CCCCc3ccc(NC(=O)Cc4cccnc4)nc3)s2)c1` [Example-13, 2-(3-(Methylsulfonyl)phenyl)-N-(5-(4-(6-(2-(pyridin-3-yl)acetamido)pyridin-3-yl)butyl)-1,3,4-thiadiazol-2-yl)acetamide], for the setting “0.1 μM, mice brain homogenate”, the inhibition at 0.1 µM lay within 75 to 100%. Besides, the inhibition at 1 µM (1 μM, mice brain homogenate) lay in the range of 75 to 100%.

In the case of `CS(=O)(=O)c1ccc(CC(=O)Nc2nnc(CCCCc3ccc(NC(=O)Cc4cccnc4)nc3)s2)cc1` [Example-14, 2-(4-(Methylsulfonyl)phenyl)-N-(5-(4-(6-(2-(pyridin-3-yl)acetamido)pyridin-3-yl)butyl)-1,3,4-thiadiazol-2-yl)acetamide], the inhibition at 0.1 µM (0.1 μM, mice brain homogenate) was 75 to 100%. Under “1 μM, mice brain homogenate”, the inhibition at 1 µM is 75 to 100%.

On to `O=C(Cc1cccnc1)Nc1ccc(CCCCc2nnc(NC(=O)Cc3cccnc3)s2)cn1` [Example-15, 2-(Pyridin-3-yl)-N-(5-(4-(5-(2-(pyridin-3-yl)acetamido)-1,3,4-thiadiazol-2-yl)butyl)pyridin-2-yl)acetamide], for which the inhibition at 0.1 µM (0.1 μM, mice brain homogenate) fell in the range of 50 to 75%. Further, the inhibition at 1 µM (1 μM, mice brain homogenate) lay in the range of 75 to 100%.

As for `O=C(Cc1cccnc1)Nc1ccc(CCCCc2nnc(NC(=O)Cc3ccccc3F)s2)cn1` [Example-19, 2-(2-Fluorophenyl)-N-(5-(4-(6-(2-(pyridin-3-yl)acetamido)pyridin-3-yl)butyl)-1,3,4-thiadiazol-2-yl)acetamide], the inhibition at 0.1 µM (0.1 μM, mice brain homogenate) lay in the range of 50 to 75%. Moreover, the inhibition at 1 µM (1 μM, mice brain homogenate) fell in the range of 75 to 100%.

As to `O=C(Cc1ccccc1Cl)Nc1ccc(CCCCc2nnc(NC(=O)Cc3ccccn3)s2)cn1` [Example-25, 2-(2-Chlorophenyl)-N-(5-(4-(5-(2-(pyridin-2-yl)acetamido)-1,3,4-thiadiazol-2-yl)butyl)pyridin-2-yl)acetamide], where the note is “0.1 μM, mice brain homogenate”, the inhibition at 0.1 µM was less than 25%. Also, the inhibition at 1 µM (1 μM, mice brain homogenate) lay in the range of 50 to 75%.

In the case of `O=C(Cc1ccccc1Cl)Nc1ccc(CCCCc2nnc(NC(=O)Cc3cccnc3)s2)cn1` [Example-26, 2-(2-Chlorophenyl)-N-(5-(4-(5-(2-(pyridin-3-yl)acetamido)-1,3,4-thiadiazol-2-yl)butyl)pyridin-2-yl)acetamide], under “0.1 μM, mice brain homogenate”, the inhibition at 0.1 µM lay within 50 to 75%. The inhibition at 1 µM (1 μM, mice brain homogenate) lay in the range of 75 to 100%.

For `CC(C)(C)OC(=O)N1CCC(c2ccc(CC(=O)Nc3nnc(CCCCc4ccc(NC(=O)Cc5cccc(OC(F)(F)F)c5)nc4)s3)cc2)CC1` [Example-33, Tert-butyl 4-(4-(2-oxo-2-(5-(4-(6-(2-(3-(trifluoromethoxy)phenyl)acetamido)pyridin-3-yl)butyl)-1,3,4-thiadiazol-2-ylamino)ethyl)phenyl)piperidine-1-carboxylate], the inhibition at 0.1 µM (0.1 μM, mice brain homogenate) was less than 25%. The inhibition at 1 µM (1 μM, mice brain homogenate) is 25 to 50%.

As for `O=C(Cc1cccc(OC(F)(F)F)c1)Nc1ccc(CCCCc2nnc(NC(=O)Cc3ccc(C4CCNCC4)cc3)s2)cn1` [Example-34, 2-(4-(Piperidin-4-yl)phenyl)-N-(5-(4-(6-(2-(3-(trifluoromethoxy)phenyl)acetamido)pyridin-3-yl)butyl)-1,3,4-thiadiazol-2-yl)acetamide hydrochloride], the inhibition at 0.1 µM was less than 25% and the inhibition at 1 µM was in the range of 25 to 50%.

For the compound `O=C(Cc1cccc(OC(F)(F)F)c1)Nc1ccc(CCCCc2nnc(NC(=O)Cn3nc(C(F)(F)F)cc3C(F)(F)F)s2)cn1` [Example-35, 2-(3,5-Bis(trifluoromethyl)-1H-pyrazol-1-yl)-N-(5-(4-(6-(2-(3-(trifluoromethoxy)phenyl)acetamido)pyridin-3-yl)butyl)-1,3,4-thiadiazol-2-yl)acetamide], where the note is “0.1 μM, mice brain homogenate”, the inhibition at 0.1 µM was less than 25%. The inhibition at 1 µM (1 μM, mice brain homogenate) is less than 25%.

For `O=C(Cc1cccc(OC(F)(F)F)c1)Nc1ccc(CCCCc2nnc(NC(=O)Cc3cccc(C4CCNCC4)c3)s2)cn1` [Example-36, 2-(3-(Piperidin-4-yl)phenyl)-N-(5-(4-(6-(2-(3-(trifluoromethoxy)phenyl)acetamido)pyridin-3-yl)butyl)-1,3,4-thiadiazol-2-yl)acetamide hydrochloride], the inhibition at 0.1 µM was 25 to 50% and the inhibition at 1 µM lay within 25 to 50%.

Consider `CS(=O)(=O)Nc1cccc(CC(=O)Nc2nnc(CCCCc3ccc(NC(=O)Cc4cccc(OC(F)(F)F)c4)nc3F)s2)c1` [Example-39, N-(6-Fluoro-5-(4-(5-(2-(3-(methylsulfonamido)phenyl)acetamido)-1,3,4-thiadiazol-2-yl)butyl)pyridin-2-yl)-2-(3-(trifluoromethoxy)phenyl)acetamide], for which the inhibition at 0.1 µM (0.1 μM, mice brain homogenate) lay within 25 to 50%. Where the note is “1 μM, mice brain homogenate”, the inhibition at 1 µM lay within 75 to 100%.

Consider `O=C(Cc1ccccn1)Nc1nnc(CC2CCC(Cc3nnc(NC(=O)Cc4ccccn4)s3)CC2)s1` (stereo not drawn) [Example-106, N,N′-(5, 5′-(Cyclohexane-1,4-diylbis(methylene))bis(1,3,4-thiadiazole-5,2-diyl))bis(2-(pyridin-2-yl)acetamide)], for which the inhibition at 0.1 µM (0.1 μM, mice brain homogenate) is less than 25%. Moreover, the inhibition at 1 µM (1 μM, mice brain homogenate) lay in the range of 25 to 50%.

As for `O=C(Cc1cccc(OC(F)(F)F)c1)Nc1ccc(CC2CC(c3nnc(NC(=O)Cc4ccccn4)s3)C2)nn1` (stereo not drawn) [Example-110, 2-(Pyridin-2-yl)-N-(5-(3-((6-(2-(3-(trifluoromethoxy)phenyl)acetamido)pyridazin-3-yl)methyl)cyclobutyl)-1,3,4-thiadiazol-2-yl)acetamide], the inhibition at 0.1 µM fell in the range of 75 to 100% and the inhibition at 1 µM lay within 75 to 100%.
